Assay results as given in patent US12589097B2, “Apilimod compositions and methods of use” (ORPHAI THERAPEUTICS INC., priority 2023, dated 2026).

Key:
[1] = Observation of adverse effects of treatment in rNLS8 mice; assay type: in vivo, mouse; conditions: 60 mg/kg p.o. BID for 24 days
Method: For the evaluation, all mice received either apilimod dimesylate (60 mg/kg)) or vehicle two times daily for 24 days, starting at […] of age, 3 days prior to disease initiation. Both groups had routine clinical assessments 3 times per week. Twenty-four (24) total mice were assigned to one of two groups, as outlined in Table 1.
(§1) Animals were weighed at the beginning of the experiment, and then, for dosing, daily for the duration of the study. Animals were also monitored daily, and clinical assessments were performed three times per week (Mondays, Wednesday, and Fridays) from disease initiation to the end of the study. Each clinical assessment day, animals were assessed for signs of motor dysfunction, including signs of tremor, hindlimb clasping, hindlimb paralysis, grill agility, and overall well-being. Each of these signs were scored on a scale of 0-3: normal/no dysfunction (0), mild (1), moderate (2), or severe (3), as summarized in Table 2.
Apilimod dimesylate was received at ambient temperature in a 50 mL tube and protected from light. The treatments were administered p.o. twice per day (BID) for a period of 24 days Each daily dose was performed within the same ˜2-hour time frame, with approximately 6 hours between doses.

[2] = tested on: Glycoprotein Nonmetastatic Melanoma Protein B (GPNMB); test: SOMAscan aptamer-based proteomics of plasma from patients dosed with apilimod (NCT02594384); assay type: in vivo, human; conditions: pre-dose vs day 15 after 14 days of dosing, FDR<0.05
From the text: A SOMAscan™ platform was used to identify analytes that were changed in the plasma of patients upon apilimod dosing. SOMAscan™ is an aptamer-based proteomics assay from SomaLogic capable of measuring 1,305 human protein analytes in serum or plasma with high sensitivity and specificity. Plasma from patients enrolled in the clinical trial designated NCT02594384 was collected pre-dose (before the first administration of apilimod) and after 14 days of dosing with apilimod, on day 15. Using differential protein analysis with a paired experimental design for linear models of microarray data using the “Limma R” software package described by Ritchie et al. in Nucleic Acids Research, 43(7), pp. e47 (2015).

[3] = Body weight (percent baseline) in TDP-43 (rNLS8) mouse model of ALS; assay type: in vivo; conditions: Group B (60 mg/kg p.o. BID) vs vehicle Group A
Method: (§2) For the evaluation, all mice received either apilimod dimesylate (60 mg/kg)) or vehicle two times daily for 24 days, starting at […] of age, 3 days prior to disease initiation. Both groups had routine clinical assessments 3 times per week. Twenty-four (24) total mice were assigned to one of two groups, as outlined in Table 1. […]
as §1, with “2. […]” for “2.”
(§3) All summary statistics are presented as mean and standard deviation. […] The data were first assessed for normality with a normal probability plot, followed by assessment of homogeneity of variance, if appropriate. […]

[4] = tested on: TDP-43 (rNLS8) mouse model of ALS; test: Clinical assessment of motor dysfunction in TDP-43 (rNLS8) mouse model of ALS; assay type: in vivo; conditions: body weight and clinical scores taken together
Method: as §2
as §1, with “2. […]” for “2.”
as §3
Progression of clinical scores (also herein “severity score”) throughout the study, following removal of Full DOX was evaluated. […]

Question: Which “adverse effects of treatment” value [1] does the source give for Cc1cccc(/C=N/Nc2cc(N3CCOCC3)nc(OCCc3ccccn3)n2)c1 [apilimod] here?
Answer: No adverse effects

Question: And the “average fold change of plasma (shed) GPNMB” value [2]?
Answer: 4 fold

Question: What about the “percent baseline body weight vs vehicle at every clinical assessment visit” value [3] of the same molecule?
Answer: tendency for higher percent baseline body weight

Question: What about the “functional deficits in TDP-43 ALS animal model” value [4] of the same molecule?
Answer: ameliorates functional deficits
